Molecules are shown by their SMILES. Read-outs that look alike come from different tables or passages of the source.

Here are results for two molecules from paper PMC9721423, “Novel benzo chromene derivatives: design, synthesis, molecular docking, cell cycle arrest, and apoptosis induction in human acute myeloid leukemia HL-60 cells” (Journal of Enzyme Inhibition and Medicinal Chemistry, 2022).

Assay in all cases: cells
Design in all cases: species or system NCI-60 human tumour cell lines; NCI-60 five-dose growth inhibition screen, sulforhodamine B protein stain
A general note: The SRB assay estimates cell density from bound dye.

One experiment has as its system HCT-116. Particulars: Homo sapiens, HCT-116, 48 h. As for the experimental part:
(§1) All the newly synthesised 28 compounds were selected for single-dose testing. NCI60 single-dose testing is performed in all 60 cell lines according to the reported assay (National Cancer Institute, https://dtp.cancer.gov/) (National Cancer Institute https://dtp.cancer.gov/discovery_development/nci-60/), compounds were dissolved in DMSO: glycerol […] and are stored in a −70 °C freezer. The prepared compounds were added at single concentration of 1 0^−5 M and the culture was incubated for 48 h. End point determinations were made with a protein binding dye, sulforhodamine B (SRB). The human tumour cell lines were derived from nine different cancer types: leukaemia, melanoma, lung, colon, central nervous system (CNS), ovarian, renal, prostate, and breast cancers. Dose–response curves for these compounds were created by plotting the percentage growth (PGs or % growth) against log10 of the corresponding concentration for every cell line. Three response parameters, GI50 (Median Growth Inhibitory Concentration), TGI (Total Growth Inhibitory Concentration), and LC50 (Median Lethal Concentration) were calculated[54] (National Cancer Institute, https://dtp.cancer.gov/discovery_development/nci-60/) (National Cancer Institute, https://dtp.cancer.gov/)[55] for compounds 5a and 6a. […] Furthermore, the average sensitivity of all cell lines towards the compound is termed as the full panel mean graph midpoints (MG-MID). The ratio obtained by dividing the full panel mean graph midpoints (MG-MID) concentration by the individual subpanel MG-MID concentrations (obtained as the average sensitivity of all cell lines of a particular subpanel towards the test compound) is considered a criterion for the compound selectivity towards the corresponding cell line. Ratios greater than 6 indicate high selectivity while ratios between 3 and 6 refer to moderate selectivity whereas compounds not meeting either of these criteria were rated non-selective[56].

For another experiment, the system named is NCI-H522. Particulars: Homo sapiens, NCI-H522, 48 h. As for the experimental part: as §1
For a further experiment, the system named is 786-0. As to conditions: Homo sapiens, 786-0, 48 h. On the procedure: as §1
A further experiment concerns ACHN. As to conditions: Homo sapiens, ACHN, 48 h. On the procedure: as §1
The test system of a further experiment is U251. Particulars: Homo sapiens, U-251, 48 h. On the procedure:
as §1

For another experiment, the system named is SNB-75. Particulars: Homo sapiens, SNB-75, 48 h. On the procedure:
as §1

A further experiment relates to K-562. Particulars: Homo sapiens, K562, 48 h. On the procedure:
as §1

A further experiment deals with CAKI-1. Particulars: Homo sapiens, CAKI-1, 48 h. As for the experimental part:
as §1

For a further experiment, the system named is HOP-62. Particulars: Homo sapiens, HOP-62, 48 h. As for the experimental part:
as §1

The next experiment concerns OVCAR-5. As to conditions: Homo sapiens, OVCAR-5, 48 h. As for the experimental part: as §1
A further experiment has as its system DU-145. As to conditions: Homo sapiens, DU-145, 48 h. On the procedure:
as §1

The test system of the next experiment is SK-MEL-5. Particulars: Homo sapiens, SK-MEL-5, 48 h. On the procedure:
as §1

A further experiment deals with MOLT-4. Particulars: Homo sapiens, MOLT-4, 48 h. On the procedure: as §1
Another experiment deals with CCRF-CEM. Particulars: Homo sapiens, CCRF-CEM, 48 h. As for the experimental part: as §1
A further experiment has as its system SF-295. As to conditions: Homo sapiens, SF-295, 48 h. As for the experimental part:
as §1

In the next experiment the test system is PC-3. Particulars: Homo sapiens, PC-3, 48 h. On the procedure: as §1
The next experiment has as its system MALME-3M. As to conditions: Homo sapiens, Malme-3M, 48 h. On the procedure: as §1

A word on the GI50: it is the concentration at which growth is held to half of that of the control. Regarding `N=C(NO)C1=C(N)Oc2c(ccc3ccccc23)C1c1ccccc1` (stereo not shown) [5a, 2-Amino-4-phenyl-N-hydroxy-4H-benzo[h]chromene-3-carboxamidine], the GI50 with HCT-116 (read-out: GI50 5a) was 410 nM; in the experiment with NCI-H522 (read-out: GI50 5a) it was 60 nM; in the experiment with 786-0 (read-out: GI50 5a) it was 560 nM; in the experiment with ACHN (read-out: GI50 5a) it was 370 nM; in the experiment with U251 (read-out: GI50 5a), 380 nM; in the experiment on SNB-75 (read-out: GI50 5a), 80 nM. Also, the 50% growth inhibitory concentration (GI50) in the experiment with K-562 (read-out: GI50 5a) turned out to be 60 nM; in the experiment with CAKI-1 (read-out: GI50 5a), 100 nM; in the experiment on HOP-62 (read-out: GI50 5a) it was 380 nM; with OVCAR-5, 610 nM; in the experiment with DU-145 (read-out: GI50 5a) it was 460 nM; in the experiment with SK-MEL-5, 320 nM. Also, the GI50 in the experiment with MOLT-4 (read-out: GI50 5a) was determined as 430 nM; in the experiment with CCRF-CEM (read-out: GI50 5a) it was 380 nM; with SF-295 (read-out: GI50 5a) it was 300 nM; in the experiment on PC-3 (read-out: GI50 5a), 230 nM; in the experiment on MALME-3M (read-out: GI50 5a), 15600 nM.

Take `CC(=O)NC1=C(C#N)C(c2ccccc2)c2ccc3ccccc3c2O1` (stereo not shown) [6a, N-(3-Cyano-4-phenyl-4H-benzo[h]chromen-2-yl)acetamide]: the GI50 turned out to be 430 nM in the experiment with HCT-116 (read-out: GI50 6a); 220 nM with NCI-H522 (read-out: GI50 6a); 490 nM in the experiment with 786-0 (read-out: GI50 6a); 550 nM in the experiment on ACHN (read-out: GI50 6a); 490 nM in the experiment with U251 (read-out: GI50 6a); 240 nM in the experiment with SNB-75 (read-out: GI50 6a). The GI50 in the experiment on K-562 (read-out: GI50 6a) came out at 320 nM; with CAKI-1 (read-out: GI50 6a) it was 340 nM; in the experiment on HOP-62 (read-out: GI50 6a), 690 nM; in the experiment with OVCAR-5 (read-out: GI50 6a) it was 2100 nM; with DU-145 (read-out: GI50 6a) it was 730 nM; in the experiment with SK-MEL-5 (read-out: GI50 6a), 360 nM. Also, the GI50 with MOLT-4 (read-out: GI50 6a) amounted to 490 nM; in the experiment with CCRF-CEM (read-out: GI50 6a) it was 390 nM; in the experiment with SF-295 (read-out: GI50 6a) it was 330 nM; with PC-3 (read-out: GI50 6a) it was 460 nM; in the experiment on MALME-3M (read-out: GI50 6a), 670 nM.
